According to ChEMBL document CHEMBL1127596, “Leukotriene B4 (LTB4) receptor antagonists: a series of (hydroxyphenyl)pyrazoles” (J Med Chem, 1994):

The molecules below were run against Leukotriene B4 receptor 1 (Homo sapiens, UniProt Q15722) (assay: Inhibition of [3H]Leukotriene B4 binding to human PMN).
Chain of Leukotriene B4 receptor 1 (Q15722 whole entry): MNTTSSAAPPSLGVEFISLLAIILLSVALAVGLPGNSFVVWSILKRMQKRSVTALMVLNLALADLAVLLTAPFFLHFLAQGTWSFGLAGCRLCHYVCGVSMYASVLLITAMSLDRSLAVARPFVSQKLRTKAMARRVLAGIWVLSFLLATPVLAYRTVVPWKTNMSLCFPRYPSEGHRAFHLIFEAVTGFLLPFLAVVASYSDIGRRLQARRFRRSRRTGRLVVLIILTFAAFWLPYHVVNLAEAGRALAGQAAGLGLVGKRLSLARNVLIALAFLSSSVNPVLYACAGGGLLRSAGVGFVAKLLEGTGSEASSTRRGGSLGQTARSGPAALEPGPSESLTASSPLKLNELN

Structure (SMILES) | IC50
CCc1cc(-c2cc[nH]n2)c(O)cc1OCCCCCOc1ccc(CC(=O)O)cc1 | 55 nM
CCCc1ccc(CCC(=O)O)cc1OCCCOc1cc(O)c(-c2cc[nH]n2)cc1CC | 738 nM
CCCc1c(OCCCOc2cc(O)c(C(=O)/C=C/N(C)C)cc2CC)ccc2c1OC(C(=O)O)CC2 (stereo not given) | 319 nM
CCc1cc(-c2ccnn2C)c(O)cc1OCCCCCC(C)(C)c1nnn[nH]1 | 107 nM
CCCc1c(CCC(=O)O)cccc1OCCCOc1cc(O)c(-c2cc[nH]n2)cc1CC | 834 nM
CCc1cc(-c2cc[nH]n2)c(O)cc1OCCCOc1cccc(CCC(=O)O)c1 | 5.7 nM
CCc1cc(-c2cc[nH]n2)c(O)cc1OCCCCCOc1ccc(C(=O)O)cc1 | 82 nM
CCc1cc(-c2cc[nH]n2)c(O)cc1OCCCCCOc1ccc(CCC(=O)O)cc1 | 28 nM

The remaining lines, values ahead:

IC50 | Structure (SMILES)
> 1000 nM | O=C(O)CCc1cccc(OCCCOc2ccc(-c3cc[nH]n3)cc2)c1
12 nM | CCc1cc(-c2cc[nH]n2)c(O)cc1OCCCOc1ccccc1CC(=O)O
9.3 nM | CCc1cc(-c2ccn(C)n2)c(O)cc1OCCCCCC(C)(C)c1nnn[nH]1
87 nM | CCc1cc(-c2cc[nH]n2)c(O)cc1OCCCOc1ccc(CCC(=O)O)cc1
11 nM | CCc1cc(-c2cc[nH]n2)c(O)cc1OCCCOc1cccc(CC(=O)O)c1
4.5 nM | CCCc1c(OCCCOc2cc(O)c(-c3cc[nH]n3)cc2CC)ccc2c1OC(C(=O)O)CC2 (stereo not given)
54 nM | CCc1cc(-c2ccn[nH]2)c(O)cc1OCCCOc1ccc(CC(=O)O)cc1
